Experimental data reported in patent US20230391845A1, “GLP-1, GIP AND GLUCAGON RECEPTOR TRIPLE AGONISTS” (priority 2020, published 2023).
*1 amine or outer side, *2 acyl side, *3 side chain or, on linkers, in order; H or OH if unused. Where a SMILES comes first, the peptide text is derived from it. Side-chain parts run from the residue outwards. [ ]: non-standard residue; d: D form. The star is where a group is joined. C20 diacid = O=C(O)CCCCCCCCCCCCCCCCCCC(=O)*; C18 diacid = O=C(O)CCCCCCCCCCCCCCCCC(=O)*; γGlu = O=C(O)[C@H](CCC(=O)[*:2])N[*:1]; εLys = N[C@@H](CCCCN[*:1])C(=O)[*:2]; Aib = CC(C)(N)C(=O)O

Target: T1, human GIP receptor (Homo sapiens, UniProt P48546)
T1 construct: expressed in transfected cells; host or cells: BHK cells (parent line BHKTS13) containing CRE luciferase
T1 sequence (P48546 22-466): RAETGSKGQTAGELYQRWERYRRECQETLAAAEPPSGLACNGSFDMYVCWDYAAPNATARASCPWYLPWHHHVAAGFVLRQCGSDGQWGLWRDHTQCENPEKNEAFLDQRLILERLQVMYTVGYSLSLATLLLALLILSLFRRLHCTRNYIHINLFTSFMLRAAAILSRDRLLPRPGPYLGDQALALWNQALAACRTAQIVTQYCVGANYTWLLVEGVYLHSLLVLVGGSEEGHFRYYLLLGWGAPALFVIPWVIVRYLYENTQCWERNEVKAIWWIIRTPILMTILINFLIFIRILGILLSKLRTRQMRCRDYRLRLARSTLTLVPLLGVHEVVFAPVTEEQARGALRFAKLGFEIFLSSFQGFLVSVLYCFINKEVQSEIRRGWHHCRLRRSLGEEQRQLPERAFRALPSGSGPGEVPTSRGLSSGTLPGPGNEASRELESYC
Assay: In vitro functional potency (CRE luciferase; whole cells), human GIPR
Format: cell-based
Details: BHK CRE luc2P hGIPR whole cells; Table 2; read-out: hGIPR CRE Luc EC50
Description: The purpose of this example is to test the functional activity, or potency, of the compounds in vitro at the human and mouse GLP-1, GIP, and Gcg receptors. The in vitro functional potency is the measure of target receptor activation in a whole cell assay.
In vitro functional potency was determined by measuring the response of the target receptor in a reporter gene assay in individual cell lines. The assay was performed in stably transfected BHK cell lines that expresses one of the following G-protein coupled receptors: human GLP-1 receptor, human GIP receptor, human Gcg receptor, mouse GLP-1 receptor, mouse GIP receptor, or mouse Gcg receptor; and where each cell line contains the DNA for the cAMP response element (CRE) coupled to a promoter and the gene for firefly luciferase (CRE luciferase). When the respective receptor is activated, it results in the production of cAMP, which in turn results in expression of the luciferase protein. When assay incubation is completed, luciferase substrate (luciferin) is added resulting in the enzymatic conversion of luciferin to oxyluciferin and producing bioluminescence. The luminescence is measured as the readout for the assay.
The cells lines used in these assays were BHK cells with BHKTS13 as a parent cell line. The cell lines were derived from a clone containing the CRE luciferase element and were established by further transfection with the respective receptor to obtain the relevant cell line.
The cells were cultured at 37° C. with 5% CO2 in Cell Culture Medium. They were aliquoted and stored in liquid nitrogen. The cells were kept in continuous culture and were seeded out the day before each assay.
GLP-1R and GcgR Cell Culture Medium consisted of DMEM medium with 10% FBS, 500 µg/mL G418, and 300 µg/mL hygromycin. GIPR Cell Culture Medium consisted of DMEM medium with 10% FBS, 400 µg/mL G418, and 300 µg/mL hygromycin. Assay Buffer consisted of DMEM w/o phenol red, 10 mM Hepes, 1× Glutamax, 1% ovalbumin, and 0.1% Pluronic F-68.
• 1) Cells were plated at 5000 cells/well and incubated overnight in the assay plate. • 2) Cells were washed once in DPBS. • 3) Stocks of the test compounds and reference compounds in concentrations ranging from 100-300 pM were diluted 1:150 in Assay Buffer.
The data from the microtiter plate reader was first regressed in an Excel in order to calculate the x-axis, log scale concentrations based on the individual test compound's stock concentration and the dilutions of the assay. […] The software performs a non-linear regression (log(agonist) vs response). A minimum of two replicates was measured for each sample. The reported values are averages of the replicates.

In order of rising EC50:
1. CC[C@H](C)[C@H](NC(=O)[C@H](CO)NC(=O)[C@H](Cc1ccc(O)cc1)NC(=O)[C@H](CC(=O)O)NC(=O)[C@H](CO)NC(=O)[C@@H](NC(=O)[C@H](Cc1ccccc1)NC(=O)[C@@H](NC(=O)CNC(=O)[C@H](Cc1c[nH]cn1)NC(=O)C(C)(C)NC(=O)[C@@H](N)Cc1c[nH]cn1)[C@@H](C)O)[C@@H](C)O)C(=O)N[C@@H](CC(C)C)C(=O)N[C@@H](CC(C)C)C(=O)N[C@@H](CCC(=O)O)C(=O)N[C@@H](CCCCNC(=O)[C@@H](N)CCCCNC(=O)[C@@H](N)CCCCNC(=O)CC[C@H](NC(=O)CCCCCCCCCCCCCCCCC(=O)O)C(=O)O)C(=O)N[C@@H](CCC(N)=O)C(=O)N[C@@H](C)C(=O)N[C@@H](C)C(=O)N[C@@H](CCC(=O)O)C(=O)N[C@@H](CCC(=O)O)C(=O)N[C@@H](Cc1ccccc1)C(=O)N[C@H](C(=O)N[C@@H](CCC(N)=O)C(=O)N[C@@H](Cc1c[nH]c2ccccc12)C(=O)N[C@@H](CC(C)C)C(=O)N[C@@H](CC(C)C)C(=O)N[C@@H](CCC(=O)O)C(=O)NCC(=O)NCC(=O)N1CCC[C@H]1C(=O)N[C@@H](CO)C(=O)N[C@@H](CO)C(=O)NCC(=O)N[C@@H](C)C(=O)N1CCC[C@H]1C(=O)N1CCC[C@H]1C(=O)N1CCC[C@H]1C(=O)N[C@@H](CO)C(=O)O)C(C)C [Compound No. 51] (H-H[Aib]HGTFTSDYSILLEK([εLys-εLys-γGlu-C18 diacid])QAAEEFVQWLLEGGPSSGAPPPS-OH)  1.8 pM
2. CC[C@H](C)[C@H](NC(=O)[C@H](CO)NC(=O)[C@H](Cc1ccc(O)cc1)NC(=O)[C@H](CC(=O)O)NC(=O)[C@H](CO)NC(=O)[C@@H](NC(=O)[C@H](Cc1ccccc1)NC(=O)[C@@H](NC(=O)CNC(=O)[C@H](Cc1c[nH]cn1)NC(=O)C(C)(C)NC(=O)[C@@H](N)Cc1c[nH]cn1)[C@@H](C)O)[C@@H](C)O)C(=O)N[C@@H](CC(C)C)C(=O)N[C@@H](CC(C)C)C(=O)N[C@@H](CCC(=O)O)C(=O)N[C@@H](CCCCNC(=O)[C@@H](N)CCCCNC(=O)[C@@H](N)CCCCNC(=O)CC[C@H](NC(=O)CCCCCCCCCCCCCCCCCCC(=O)O)C(=O)O)C(=O)N[C@@H](CCC(N)=O)C(=O)N[C@@H](C)C(=O)N[C@@H](C)C(=O)N[C@@H](CCC(=O)O)C(=O)N[C@@H](CCC(=O)O)C(=O)N[C@@H](Cc1ccccc1)C(=O)N[C@H](C(=O)N[C@@H](CCC(N)=O)C(=O)N[C@@H](Cc1c[nH]c2ccccc12)C(=O)N[C@@H](CC(C)C)C(=O)N[C@@H](CC(C)C)C(=O)N[C@@H](CCC(=O)O)C(=O)NCC(=O)NCC(=O)N1CCC[C@H]1C(=O)N[C@@H](CO)C(=O)N[C@@H](CO)C(=O)NCC(=O)N[C@@H](C)C(=O)N1CCC[C@H]1C(=O)N1CCC[C@H]1C(=O)N1CCC[C@H]1C(=O)N[C@@H](CO)C(=O)O)C(C)C [Compound No. 50] (H-H[Aib]HGTFTSDYSILLEK([εLys-εLys-γGlu-C20 diacid])QAAEEFVQWLLEGGPSSGAPPPS-OH)  1.9 pM
3. CC[C@H](C)[C@H](NC(=O)[C@H](CO)NC(=O)[C@H](Cc1ccc(O)cc1)NC(=O)[C@H](CC(=O)O)NC(=O)[C@H](CO)NC(=O)[C@@H](NC(=O)[C@H](Cc1ccccc1)NC(=O)[C@@H](NC(=O)CNC(=O)[C@H](Cc1c[nH]cn1)NC(=O)C(C)(C)NC(=O)[C@@H](N)Cc1c[nH]cn1)[C@@H](C)O)[C@@H](C)O)C(=O)N[C@@H](CC(C)C)C(=O)N[C@@H](CC(C)C)C(=O)N[C@@H](CCC(=O)O)C(=O)N[C@@H](CCCCNC(=O)[C@@H](N)CCCCNC(=O)[C@@H](N)CCCCNC(=O)CC[C@H](NC(=O)CCCCCCCCCCCCCCCCCCC(=O)O)C(=O)O)C(=O)N[C@@H](CCC(N)=O)C(=O)N[C@@H](C)C(=O)N[C@@H](C)C(=O)N[C@@H](CCC(N)=O)C(=O)N[C@@H](CCC(=O)O)C(=O)N[C@@H](Cc1ccccc1)C(=O)N[C@H](C(=O)N[C@@H](CCC(N)=O)C(=O)N[C@@H](Cc1c[nH]c2ccccc12)C(=O)N[C@@H](CC(C)C)C(=O)N[C@@H](CC(C)C)C(=O)N[C@@H](CCC(=O)O)C(=O)NCC(=O)NCC(=O)N1CCC[C@H]1C(=O)N[C@@H](CO)C(=O)N[C@@H](CO)C(=O)NCC(=O)N[C@@H](C)C(=O)N1CCC[C@H]1C(=O)N1CCC[C@H]1C(=O)N1CCC[C@H]1C(=O)N[C@@H](CO)C(=O)O)C(C)C [Compound No. 53] (H-H[Aib]HGTFTSDYSILLEK([εLys-εLys-γGlu-C20 diacid])QAAQEFVQWLLEGGPSSGAPPPS-OH)  4.8 pM
4. CC(C)C[C@H](NC(=O)[C@H](CC(C)C)NC(=O)[C@H](Cc1c[nH]c2ccccc12)NC(=O)[C@H](CCC(N)=O)NC(=O)[C@@H](NC(=O)[C@H](Cc1ccccc1)NC(=O)[C@H](CCC(=O)O)NC(=O)C(C)(C)NC(=O)[C@H](C)NC(=O)[C@H](Cc1ccc(O)cc1)NC(=O)[C@H](CCC(N)=O)NC(=O)[C@H](CCCCNC(=O)[C@@H](N)CCCCNC(=O)[C@@H](N)CCCCNC(=O)CC[C@H](NC(=O)CCCCCCCCCCCCCCCCCCC(=O)O)C(=O)O)NC(=O)[C@H](CCC(=O)O)NC(=O)[C@H](CC(C)C)NC(=O)[C@H](Cc1ccc(O)cc1)NC(=O)[C@H](Cc1ccc(O)cc1)NC(=O)[C@H](CO)NC(=O)[C@H](Cc1ccc(O)cc1)NC(=O)[C@H](CC(=O)O)NC(=O)[C@H](CO)NC(=O)[C@@H](NC(=O)[C@H](Cc1ccccc1)NC(=O)[C@@H](NC(=O)CNC(=O)[C@H](Cc1c[nH]cn1)NC(=O)C(C)(C)NC(=O)[C@@H](N)Cc1c[nH]cn1)[C@@H](C)O)[C@@H](C)O)C(C)C)C(=O)N[C@@H](CCC(=O)O)C(=O)NCC(=O)NCC(=O)N1CCC[C@H]1C(=O)N[C@@H](CO)C(=O)N[C@@H](CO)C(=O)NCC(=O)N[C@@H](C)C(=O)N1CCC[C@H]1C(=O)N1CCC[C@H]1C(=O)N1CCC[C@H]1C(=O)N[C@@H](CO)C(N)=O [Compound No. 29] (H-H[Aib]HGTFTSDYSYYLEK([εLys-εLys-γGlu-C20 diacid])QYA[Aib]EFVQWLLEGGPSSGAPPPS-NH2)  7.2 pM
5. CC[C@H](C)[C@H](NC(=O)[C@H](CO)NC(=O)[C@H](Cc1ccc(O)cc1)NC(=O)[C@H](CC(=O)O)NC(=O)[C@H](CO)NC(=O)[C@@H](NC(=O)[C@H](Cc1ccccc1)NC(=O)[C@@H](NC(=O)CNC(=O)[C@H](Cc1c[nH]cn1)NC(=O)C(C)(C)NC(=O)[C@@H](N)Cc1c[nH]cn1)[C@@H](C)O)[C@@H](C)O)C(=O)N[C@@H](Cc1ccc(O)cc1)C(=O)N[C@@H](CC(C)C)C(=O)N[C@@H](CC(=O)O)C(=O)N[C@@H](CCCCNC(=O)[C@@H](N)CCCCNC(=O)[C@@H](N)CCCCNC(=O)CC[C@H](NC(=O)CCCCCCCCCCCCCCCCCCC(=O)O)C(=O)O)C(=O)N[C@@H](CCC(N)=O)C(=O)N[C@@H](C)C(=O)N[C@@H](C)C(=O)NC(C)(C)C(=O)N[C@@H](CCC(=O)O)C(=O)N[C@@H](Cc1ccccc1)C(=O)N[C@H](C(=O)N[C@@H](CCC(N)=O)C(=O)N[C@@H](Cc1c[nH]c2ccccc12)C(=O)N[C@@H](CC(C)C)C(=O)N[C@@H](CC(C)C)C(=O)N[C@@H](CCC(=O)O)C(=O)NCC(=O)NCC(=O)N1CCC[C@H]1C(=O)N[C@@H](CO)C(=O)N[C@@H](CO)C(=O)NCC(=O)N[C@@H](C)C(=O)N1CCC[C@H]1C(=O)N1CCC[C@H]1C(=O)N1CCC[C@H]1C(=O)N[C@@H](CO)C(N)=O)C(C)C [Compound No. 28] (H-H[Aib]HGTFTSDYSIYLDK([εLys-εLys-γGlu-C20 diacid])QAA[Aib]EFVQWLLEGGPSSGAPPPS-NH2)  7.7 pM
